Experimental data published in the supplement of paper PMC10307832.

What was measured:
Assay in all cases: relative viability (nuclei count vs DMSO), 5 days (fraction); higher = more cells survive
H3255 = test system: H3255
Procedure, shortened: (§1)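 Nuclei were stained with Hoechst during a one-step fixation (final 0.05% Triton X-100, 1% formaldehyde, 1 ug/ml Hoechst) carried out 5 days after dosing, then counted on 4× images. The cells, lung cancer lines in 1536-well plates, had been dosed by pin tool the day after seeding with one drug alone or a fixed anchor-drug dose plus five library-drug doses (not always all listed) in √10 steps. Relative viability is the nuclei count in treated wells divided by that in vehicle wells, and each value is the median of duplicate plates.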

NCI-H1975 = test system: NCI-H1975
Procedure, shortened: as §1

NCI-H2228 = test system: NCI-H2228
Procedure, shortened: as §1

HCC-366 = test system: HCC-366
Procedure, shortened: as §1

LCLC-103H = test system: LCLC-103H
Procedure, shortened: as §1

NCI-H661 = test system: NCI-H661
Procedure, shortened: as §1

PC-14 = test system: PC-14
Procedure, shortened: as §1

LC-2-ad = test system: LC-2-ad
Procedure, shortened: as §1

NCI-H23 = test system: NCI-H23
Procedure, shortened: as §1

UMC-11 = test system: UMC-11
Procedure, shortened: as §1

NCI-H2087 = test system: NCI-H2087
Procedure, shortened: as §1

COR-L23 = test system: COR-L23
Procedure, shortened: as §1

HCC-15 = test system: HCC-15
Procedure, shortened: as §1

NCI-H2085 = test system: NCI-H2085
Procedure, shortened: as §1

NCI-H1666 = test system: NCI-H1666
Procedure, shortened: as §1

NCI-H1437 = test system: NCI-H1437
Procedure, shortened: as §1

HCC-827 = test system: HCC-827
Procedure, shortened: as §1

ABC-1 = test system: ABC-1
Procedure, shortened: as §1

NCI-H2009 = test system: NCI-H2009
Procedure, shortened: as §1

LXF-289 = test system: LXF-289
Procedure, shortened: as §1

PC-3 [JPC-3] = test system: PC-3 [JPC-3]
Procedure, shortened: as §1

SK-MES-1 = test system: SK-MES-1
Procedure, shortened: as §1

SMILES: CCNC(=O)c1noc(-c2cc(C(C)C)c(O)cc2O)c1-c1ccc(CN2CCOCC2)cc1 [Luminespib] + C[C@@H](Oc1cc(-c2cnn(C3CCNCC3)c2)cnc1N)c1c(Cl)ccc(F)c1Cl [Crizotinib] (partner 1 µM)
- relative viability (H3255; first compound 0.002 µM): 0.896
- relative viability (H3255; first compound 0.006325 µM): 0.691
- relative viability (H3255; first compound 0.02 µM): 0.755
- relative viability (H3255; first compound 0.06325 µM): 0.621
- relative viability (H3255; first compound 0.2 µM): 0.216
- relative viability (NCI-H1975; first compound 0.002 µM): 0.975
- relative viability (NCI-H1975; first compound 0.006325 µM): 0.99
- relative viability (NCI-H1975; first compound 0.02 µM): 0.763
- relative viability (NCI-H1975; first compound 0.06325 µM): 0.147
- relative viability (NCI-H1975; first compound 0.2 µM): 0.15
- relative viability (NCI-H2228; first compound 0.002 µM): 0.47
- relative viability (NCI-H2228; first compound 0.006325 µM): 0.514
- relative viability (NCI-H2228; first compound 0.02 µM): 0.264
- relative viability (NCI-H2228; first compound 0.06325 µM): 0.161
- relative viability (NCI-H2228; first compound 0.2 µM): 0.148
- relative viability (HCC-366; first compound 0.002 µM): 0.695
- relative viability (HCC-366; first compound 0.006325 µM): 0.659
- relative viability (HCC-366; first compound 0.02 µM): 0.549
- relative viability (HCC-366; first compound 0.06325 µM): 0.0174
- relative viability (HCC-366; first compound 0.2 µM): 0.0135
- relative viability (LCLC-103H; first compound 0.002 µM): 1.02
- relative viability (LCLC-103H; first compound 0.006325 µM): 1.04
- relative viability (LCLC-103H; first compound 0.02 µM): 0.908
- relative viability (LCLC-103H; first compound 0.06325 µM): 1.02
- relative viability (LCLC-103H; first compound 0.2 µM): 1.15
- relative viability (NCI-H661; first compound 0.006325 µM): 0.936
- relative viability (NCI-H661; first compound 0.02 µM): 1.05
- relative viability (NCI-H661; first compound 0.06325 µM): 0.939
- relative viability (NCI-H661; first compound 0.2 µM): 0.715
- relative viability (PC-14; first compound 0.002 µM): 0.973
- relative viability (PC-14; first compound 0.006325 µM): 0.845
- relative viability (PC-14; first compound 0.02 µM): 1.12
- relative viability (PC-14; first compound 0.06325 µM): 0.171
- relative viability (PC-14; first compound 0.2 µM): 0.102
- relative viability (LC-2-ad; first compound 0.002 µM): 0.48
- relative viability (LC-2-ad; first compound 0.006325 µM): 0.482
- relative viability (LC-2-ad; first compound 0.06325 µM): 0.289
- relative viability (LC-2-ad; first compound 0.2 µM): 0.262
- relative viability (NCI-H23; first compound 0.002 µM): 0.56
- relative viability (NCI-H23; first compound 0.006325 µM): 0.538
- relative viability (NCI-H23; first compound 0.02 µM): 0.445
- relative viability (NCI-H23; first compound 0.06325 µM): 0.119
- relative viability (NCI-H23; first compound 0.2 µM): 0.123
- relative viability (UMC-11; first compound 0.002 µM): 0.606
- relative viability (UMC-11; first compound 0.006325 µM): 0.584
- relative viability (UMC-11; first compound 0.02 µM): 0.682
- relative viability (UMC-11; first compound 0.06325 µM): 0.156
- relative viability (UMC-11; first compound 0.2 µM): 0.107
- relative viability (NCI-H2087; first compound 0.002 µM): 0.934
- relative viability (NCI-H2087; first compound 0.006325 µM): 0.684
- relative viability (NCI-H2087; first compound 0.02 µM): 0.875
- relative viability (NCI-H2087; first compound 0.06325 µM): 0.156
- relative viability (NCI-H2087; first compound 0.2 µM): 0.145
- relative viability (COR-L23; first compound 0.002 µM): 0.806
- relative viability (COR-L23; first compound 0.006325 µM): 0.629
- relative viability (COR-L23; first compound 0.02 µM): 0.81
- relative viability (COR-L23; first compound 0.06325 µM): 0.0713
- relative viability (COR-L23; first compound 0.2 µM): 0.0608
- relative viability (HCC-15; first compound 0.002 µM): 0.836
- relative viability (HCC-15; first compound 0.006325 µM): 0.863
- relative viability (HCC-15; first compound 0.02 µM): 0.901
- relative viability (HCC-15; first compound 0.06325 µM): 0.473
- relative viability (HCC-15; first compound 0.2 µM): 0.412
- relative viability (NCI-H2085; first compound 0.002 µM): 1.04
- relative viability (NCI-H2085; first compound 0.006325 µM): 0.953
- relative viability (NCI-H2085; first compound 0.02 µM): 0.948
- relative viability (NCI-H2085; first compound 0.06325 µM): 0.383
- relative viability (NCI-H2085; first compound 0.2 µM): 0.272
- relative viability (NCI-H1666; first compound 0.002 µM): 1.04
- relative viability (NCI-H1666; first compound 0.006325 µM): 0.929
- relative viability (NCI-H1666; first compound 0.02 µM): 1.13
- relative viability (NCI-H1666; first compound 0.06325 µM): 1
- relative viability (NCI-H1666; first compound 0.2 µM): 0.756
- relative viability (NCI-H1437; first compound 0.002 µM): 0.92
- relative viability (NCI-H1437; first compound 0.006325 µM): 0.833
- relative viability (NCI-H1437; first compound 0.02 µM): 1.05
- relative viability (NCI-H1437; first compound 0.06325 µM): 0.83
- relative viability (NCI-H1437; first compound 0.2 µM): 0.478
- relative viability (HCC-827; first compound 0.002 µM): 0.944
- relative viability (HCC-827; first compound 0.006325 µM): 0.899
- relative viability (HCC-827; first compound 0.02 µM): 0.887
- relative viability (HCC-827; first compound 0.06325 µM): 0.952
- relative viability (HCC-827; first compound 0.2 µM): 0.879
- relative viability (ABC-1; first compound 0.002 µM): 1.55
- relative viability (ABC-1; first compound 0.006325 µM): 0.877
- relative viability (ABC-1; first compound 0.02 µM): 1.06
- relative viability (ABC-1; first compound 0.06325 µM): 0.19
- relative viability (ABC-1; first compound 0.2 µM): 0.18
- relative viability (NCI-H2009; first compound 0.002 µM): 1.14
- relative viability (NCI-H2009; first compound 0.006325 µM): 0.918
- relative viability (NCI-H2009; first compound 0.02 µM): 1.04
- relative viability (NCI-H2009; first compound 0.06325 µM): 0.0632
- relative viability (NCI-H2009; first compound 0.2 µM): 0.0663
- relative viability (LXF-289; first compound 0.002 µM): 0.825
- relative viability (LXF-289; first compound 0.006325 µM): 0.79
- relative viability (LXF-289; first compound 0.02 µM): 0.894
- relative viability (LXF-289; first compound 0.06325 µM): 0.459
- relative viability (LXF-289; first compound 0.2 µM): 0.123
- relative viability (PC-3 [JPC-3]; first compound 0.002 µM): 1.01
- relative viability (PC-3 [JPC-3]; first compound 0.006325 µM): 0.875
- relative viability (PC-3 [JPC-3]; first compound 0.02 µM): 0.971
- relative viability (PC-3 [JPC-3]; first compound 0.06325 µM): 0.996
- relative viability (PC-3 [JPC-3]; first compound 0.2 µM): 0.933
- relative viability (SK-MES-1; first compound 0.002 µM): 0.984
- relative viability (SK-MES-1; first compound 0.006325 µM): 1.03
- relative viability (SK-MES-1; first compound 0.02 µM): 1.08
- relative viability (SK-MES-1; first compound 0.06325 µM): 0.758
- relative viability (SK-MES-1; first compound 0.2 µM): 0.147
